Measured values as given in US20070249670A1, “Glycogen Phosphorylase Inhibitor Compounds and Pharmaceutical Compositions Thereof” (SMITHKLINE BEECHAM CORPORATION, priority 2004, published 2007).

Target: T1, human liver glycogen phosphorylase a (HLGPa) (Homo sapiens, UniProt P06737)
T1 construct: creating a full-length cDNA fused at the 5′ end to codons for methionine-glycine-alanine-histidine; 6xHis tag (leader Met-Gly-Ala-His6-Gly-Gly) (N); made in house; host or cells: E. coli (bacterial expression plasmid pTXK1007LTev)
T1 sequence (P06737 2-847 limits assumed): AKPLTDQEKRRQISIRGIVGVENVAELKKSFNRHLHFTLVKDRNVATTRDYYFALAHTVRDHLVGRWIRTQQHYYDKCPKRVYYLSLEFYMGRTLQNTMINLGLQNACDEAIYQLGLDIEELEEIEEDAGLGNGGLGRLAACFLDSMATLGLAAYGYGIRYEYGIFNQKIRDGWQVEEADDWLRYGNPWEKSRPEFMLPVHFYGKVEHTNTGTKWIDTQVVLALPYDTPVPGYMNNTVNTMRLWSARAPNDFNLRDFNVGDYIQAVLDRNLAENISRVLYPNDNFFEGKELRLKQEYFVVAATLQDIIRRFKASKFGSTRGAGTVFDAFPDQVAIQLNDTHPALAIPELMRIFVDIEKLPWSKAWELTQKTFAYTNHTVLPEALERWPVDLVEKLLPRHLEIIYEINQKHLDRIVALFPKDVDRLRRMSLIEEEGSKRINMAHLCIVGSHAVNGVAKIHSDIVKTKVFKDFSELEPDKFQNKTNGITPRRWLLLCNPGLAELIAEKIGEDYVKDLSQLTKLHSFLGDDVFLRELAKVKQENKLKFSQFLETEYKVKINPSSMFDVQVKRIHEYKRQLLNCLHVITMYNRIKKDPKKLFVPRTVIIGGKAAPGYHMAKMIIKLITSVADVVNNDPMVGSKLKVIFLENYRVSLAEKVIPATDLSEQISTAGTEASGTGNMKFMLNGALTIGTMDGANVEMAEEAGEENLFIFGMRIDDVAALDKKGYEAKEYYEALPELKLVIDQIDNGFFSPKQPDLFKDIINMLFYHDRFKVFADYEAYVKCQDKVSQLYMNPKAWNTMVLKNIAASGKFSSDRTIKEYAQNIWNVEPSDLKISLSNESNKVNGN
Assay: Human liver glycogen phosphorylase a enzymatic activity assay (coupled, fluorescent resorufin readout, with and without 10 mM glucose)
Assay type: biochemical
Conditions: human liver glycogen phosphorylase a enzymatic activity assay

| IC50 | SMILES |
| --- | --- |
| 1.63 µM | O=C(Nc1cc(-c2ccc(OC(F)(F)F)cc2)sc1C(=O)N[C@H](C(=O)O)C1CCCCC1)Nc1c(Cl)cccc1Cl [Example 435, (2S)-cyclohexyl{[(3-({[(2,6-dichlorophenyl)amino]carbonyl}amino)-5-{4-[(trifluoromethyl)oxy]phenyl}-2-thienyl)carbonyl]amino}ethanoic acid] |
| 1.57 µM | Cc1cc(C)c(NC(=O)Nc2cc(-c3ccc(OC(F)(F)F)cc3)sc2C(=O)O)c(C)c1 [Example 436, 5-{4-[(trifluoromethyl)oxy]phenyl}-3-({[(2,4,6-trimethylphenyl)amino]carbonyl}amino)-2-thiophenecarboxylic acid] |
| 0.22 µM | Cc1cc(C)c(NC(=O)Nc2cc(-c3ccc(OC(F)(F)F)cc3)sc2C(=O)N[C@H](C(=O)O)C2CCCCC2)c(C)c1 [Example 437, (2S)-cyclohexyl({[5-{4-[(trifluoromethyl)oxy]phenyl}-3-({[(2,4,6-trimethylphenyl)amino]carbonyl}amino)-2-thienyl]carbonyl}amino)ethanoic acid] |
| 0.33 µM | COc1ccc(-c2cc(NC(=O)Nc3c(C)cc(C)cc3C)c(C(=O)O)s2)cc1 [Example 438, 5-[4-(methyloxy)phenyl]-3-({[(2,4,6-trimethylphenyl)amino]carbonyl}amino)-2-thiophenecarboxylic acid] |
| 0.012 µM | COc1ccc(-c2cc(NC(=O)Nc3c(C)cc(C)cc3C)c(C(=O)N[C@H](C(=O)O)C3CCCCC3)s2)cc1 [Example 439, (2S)-cyclohexyl({[5-[4-(methyloxy)phenyl]-3-({[(2,4,6-trimethylphenyl)amino]carbonyl}amino)-2-thienyl]carbonyl}amino)ethanoic acid] |
| 0.1 µM | COc1ccc(-c2cc(NC(=O)Nc3c(C)cc(C)cc3C)c(C(=O)N[C@H](C(=O)O)C(C)C)s2)cc1 [Example 440] |
| 2.11 µM | COc1ccc(-c2cc(NC(=O)Nc3c(C)cc(C)cc3C)c(C(=O)N[C@@H](C(=O)O)C(C)C)s2)cc1 [Example 441, N-{[5-[4-(methyloxy)phenyl]-3-({[(2,4,6-trimethylphenyl)amino]carbonyl}amino)-2-thienyl]carbonyl}-D-valine] |
| 0.051 µM | CC[C@H](C)[C@H](NC(=O)c1sc(-c2ccc(OC)cc2)cc1NC(=O)Nc1c(C)cc(C)cc1C)C(=O)O [Example 442, N-{[5-[4-(methyloxy)phenyl]-3-({[(2,4,6-trimethylphenyl)amino]carbonyl}amino)-2-thienyl]carbonyl}-L-isoleucine] |
| 0.043 µM | CCCC[C@H](NC(=O)c1sc(-c2ccc(OC)cc2)cc1NC(=O)Nc1c(C)cc(C)cc1C)C(=O)O [Example 443, N-{[5-[4-(methyloxy)phenyl]-3-({[(2,4,6-trimethylphenyl)amino]carbonyl}amino)-2-thienyl]carbonyl}-L-norleucine] |
| 0.11 µM | COc1ccc(-c2cc(NC(=O)Nc3c(C)cc(C)cc3C)c(C(=O)N[C@@H](CC3CCCCC3)C(=O)O)s2)cc1 [Example 444, 3-cyclohexyl-N-{[5-[4-(methyloxy)phenyl]-3-({[(2,4,6-trimethylphenyl)amino]carbonyl}amino)-2-thienyl]carbonyl}-L-alanine] |
| 0.082 µM | COc1ccc(-c2cc(NC(=O)Nc3c(C)cc(C)cc3C)c(C(=O)N[C@@H](COC(C)(C)C)C(=O)O)s2)cc1 [Example 445, O-(1,1-dimethylethyl)-N-{[5-[4-(methyloxy)phenyl]-3-({[(2,4,6-trimethylphenyl)amino]carbonyl}amino)-2-thienyl]carbonyl}-L-serine] |
| 0.031 µM | COc1ccc(-c2cc(NC(=O)Nc3c(C)cc(C)cc3C)c(C(=O)N[C@H](C(=O)O)[C@@H](C)OC(C)(C)C)s2)cc1 [Example 446, O-(1,1-dimethylethyl)-N-{[5-[4-(methyloxy)phenyl]-3-({[(2,4,6-trimethylphenyl)amino]carbonyl}amino)-2-thienyl]carbonyl}-L-threonine] |
| 0.026 µM | COc1ccc(-c2cc(NC(=O)Nc3c(C)cc(C)cc3C)c(C(=O)N3CCC[C@H]3C(=O)O)s2)cc1 [Example 447, 1-{[5-[4-(methyloxy)phenyl]-3-({[(2,4,6-trimethylphenyl)amino]carbonyl}amino)-2-thienyl]carbonyl}-L-proline] |
| 0.37 µM | COc1ccc(-c2cc(NC(=O)Nc3c(C)cc(C)cc3C)c(C(=O)N3CCCC[C@H]3C(=O)O)s2)cc1 [Example 448, (2S)-1-{[5-[4-(methyloxy)phenyl]-3-({[(2,4,6-trimethylphenyl)amino]carbonyl}amino)-2-thienyl]carbonyl}-2-piperidinecarboxylic acid] |
| 0.34 µM | COc1ccc(-c2cc(NC(=O)Nc3c(C)cc(C)cc3C)c(C(=O)NC3(C(=O)O)CC3)s2)cc1 [Example 449, 1-({[5-[4-(methyloxy)phenyl]-3-({[(2,4,6-trimethylphenyl)amino]carbonyl}amino)-2-thienyl]carbonyl}amino)cyclopropanecarboxylic acid] |
| 0.25 µM | COc1ccc(-c2cc(NC(=O)Nc3c(C)cc(C)cc3C)c(C(=O)NC3(C(=O)O)CCC3)s2)cc1 [Example 450, 1-({[5-[4-(methyloxy)phenyl]-3-({[(2,4,6-trimethylphenyl)amino]carbonyl}amino)-2-thienyl]carbonyl}amino)cyclobutanecarboxylic acid] |
| 0.047 µM | COc1ccc(-c2cc(NC(=O)Nc3c(C)cc(C)cc3C)c(C(=O)NC3(C(=O)O)CCCC3)s2)cc1 [Example 451, 1-({[5-[4-(methyloxy)phenyl]-3-({[(2,4,6-trimethylphenyl)amino]carbonyl}amino)-2-thienyl]carbonyl}amino)cyclopentanecarboxylic acid] |
| 0.003 µM | COc1ccc(-c2cc(NC(=O)Nc3c(C)cc(C)cc3C)c(C(=O)NC3(C(=O)O)CCCCC3)s2)cc1 [Example 452, 1-({[5-[4-(methyloxy)phenyl]-3-({[(2,4,6-trimethylphenyl)amino]carbonyl}amino)-2-thienyl]carbonyl}amino)cyclohexanecarboxylic acid] |
| 0.004 µM | COc1ccc(-c2cc(NC(=O)Nc3c(C)cc(C)cc3C)c(C(=O)NC3(C(=O)O)CCCCCC3)s2)cc1 [Example 453, 1-({[5-[4-(methyloxy)phenyl]-3-({[(2,4,6-trimethylphenyl)amino]carbonyl}amino)-2-thienyl]carbonyl}amino)cycloheptanecarboxylic acid] |
| 0.001 µM | COc1ccc(-c2cc(NC(=O)Nc3c(C)cc(C)cc3C)c(C(=O)NC3(C(=O)O)CCCCCCC3)s2)cc1 [Example 454, 1-({[5-[4-(methyloxy)phenyl]-3-({[(2,4,6-trimethylphenyl)amino]carbonyl}amino)-2-thienyl]carbonyl}amino)cyclooctanecarboxylic acid] |
| 0.086 µM | O=C(Nc1cc2ccccc2cc1C(=O)N[C@H](C(=O)O)C1CCCCC1)Nc1c(Cl)cc(F)cc1Cl [Example 455, (2S)-cyclohexyl({[3-({[(2,6-dichloro-4-fluorophenyl)amino]carbonyl}amino)-2-naphthalenyl]carbonyl}amino)ethanoic acid] |
| 0.23 µM | C[C@](NC(=O)c1cc2ccccc2cc1NC(=O)Nc1c(Cl)cc(Cl)cc1Cl)(C(=O)O)C1CCCCC1 [Example 456, 2-cyclohexyl-N-{[3-({[(2,4,6-trichlorophenyl)amino]carbonyl}amino)-2-naphthalenyl]carbonyl}-L-alanine] |
| 0.064 µM | Cc1cc(C)c(CC(=O)Nc2cc3ccccc3cc2C(=O)N[C@H](C(=O)O)C2CCCCC2)c(C)c1 [Example 457, (2S)-cyclohexyl{[(3-{[(2,4,6-trimethylphenyl)acetyl]amino}-2-naphthalenyl)carbonyl]amino}ethanoic acid] |
| 0.22 µM | Cc1cc(Br)cc(C)c1NC(=O)Nc1cc2ccccc2cc1C(=O)N[C@H](C(=O)O)C1CCCCC1 [Example 458, (2S)-({[3-({[(4-bromo-2,6-dimethylphenyl)amino]carbonyl}amino)-2-naphthalenyl]carbonyl}amino)(cyclohexyl)ethanoic acid] |
| 0.18 µM | O=C(Cc1c(Cl)ccc(Cl)c1Cl)Nc1cc2ccccc2cc1C(=O)N[C@H](C(=O)O)C1CCCCC1 [Example 459, (2S)-cyclohexyl{[(3-{[(2,3,6-trichlorophenyl)acetyl]amino}-2-naphthalenyl)carbonyl]amino}ethanoic acid] |
| 0.002 µM | CCc1cc(C)c(NC(=O)Nc2cc3ccccc3cc2C(=O)N[C@H](C(=O)O)C2CCCCC2)c(C)c1 [Example 460, (2S)-cyclohexyl({[3-({[(4-ethyl-2,6-dimethylphenyl)amino]carbonyl}amino)-2-naphthalenyl]carbonyl}amino)ethanoic acid] |
| 0.006 µM | C[C@](NC(=O)c1cc2ccccc2cc1NC(=O)Nc1c(Cl)cc(OC(F)(F)F)cc1Cl)(C(=O)O)C1CCCCC1 [Example 465, 2-cyclohexyl-N-[(3-{[({2,6-dichloro-4-[(trifluoromethyl)oxy]phenyl}amino)carbonyl]amino}-2-naphthalenyl)carbonyl]-L-alanine] |
